In patent US20180170904A1, “PYRIDIN-3-YL ACETIC ACID DERIVATIVES AS INHIBITORS OF HUMAN IMMUNODEFICIENCY VIRUS REPLICATION” (priority 2015, published 2018):
Where two headings read alike, the source gives them in different places.

Test system: NL-RLuc virus (recombinant NL4-3 proviral clone with Renilla Luciferase gene)
Assay: Inhibition of HIV replication (NL-RLuc reporter virus in MT-2 cells)
Format: cell-based
How it was run: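 Antiviral EC50 came from luciferase signal after 5-day multicycle replication of NL-RLuc virus in MT-2 cells with serially diluted compound (RPMI 1640, 10% heat-inactivated FBS), fitted by the median effect equation over at least 2 experiments.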

[1] = Renilla, NL43, 120 h, read-out: Activity
[2] = Renilla, NL43, 120 h, read-out: EC50 μM

Molecule	EC50 [1] [µM]	EC50 [2] [µM]	EC50 (MT-2 cells infected with NL-RLuc virus, 5 days of incubation, luciferase readout, read-out: Activity) [µM]
Cc1nc(C)c([C@H](OC(C)(C)C)C(=O)O)c(N2CCC(C)(C)CC2)c1-c1ccc(NCCc2ccc(F)cc2)cc1 [Example 73, (S)-2-(tert-Butoxy)-2-(4-(4,4-dimethylpiperidin-1-yl)-5-(4-((4-fluorophenethyl)amino)phenyl)-2,6-dimethylpyridin-3-yl)acetic acid]	< 0.1	–	–
COc1cccc(-c2ccc(-c3c(C)nc(C)c([C@H](OC(C)(C)C)C(=O)O)c3N3CCC(C)(C)CC3)cc2)c1 [Example 21, (S)-2-(tert-Butoxy)-2-(4-(4,4-dimethylpiperidin-1-yl)-5-(3′-methoxy-[1,1′-biphenyl]-4-yl)-2,6-dimethylpyridin-3-yl)acetic acid]	< 0.1	–	–
Cc1nc(C)c([C@H](OC(C)(C)C)C(=O)O)c(N2CCC(C)(C)CC2)c1-c1cc(F)c(F)c(F)c1 [Example 33, (S)-2-(tert-Butoxy)-2-(4-(4,4-dimethylpiperidin-1-yl)-2,6-dimethyl-5-(3,4,5-trifluorophenyl)pyridin-3-yl)acetic acid]	< 0.1	–	–
Cc1nc(C)c([C@H](OC(C)(C)C)C(=O)O)c(N2CCC(C)(C)CC2)c1-c1ccc(S(=O)(=O)C(C)C)cc1 [Example 30, (S)-2-(tert-Butoxy)-2-(4-(4,4-dimethylpiperidin-1-yl)-5-(4-(isopropylsulfonyl)phenyl)-2,6-dimethylpyridin-3-yl)acetic acid]	< 0.1	–	–
Cc1nc(C)c([C@H](OC(C)(C)C)C(=O)O)c(N2CCC(C)(C)CC2)c1-c1ccc(CC(C)C)cc1 [Example 20, (S)-2-(tert-Butoxy)-2-(4-(4,4-dimethylpiperidin-1-yl)-5-(4-isobutylphenyl)-2,6-dimethylpyridin-3-yl)acetic acid]	< 0.1	0.161	–
Cc1nc(C)c([C@H](OC(C)(C)C)C(=O)O)c(N2CCC(C)(C)CC2)c1-c1ccc(-c2ccc(OC(C)C)cc2)cc1 [Example 10, (S)-2-(tert-Butoxy)-2-(4-(4,4-dimethylpiperidin-1-yl)-5-(4′-isopropoxy-[1,1′-biphenyl]-4-yl)-2,6-dimethylpyridin-3-yl)acetic acid]	< 0.1	–	–
COc1ccc(-c2ccc(-c3c(C)nc(C)c([C@H](OC(C)(C)C)C(=O)O)c3N3CCC(C)(C)CC3)cc2)cc1 [Example 16, (S)-2-(tert-Butoxy)-2-(4-(4,4-dimethylpiperidin-1-yl)-5-(4′-methoxy-[1,1′-biphenyl]-4-yl)-2,6-dimethylpyridin-3-yl)acetic acid]	< 0.1	–	–
Cc1nc(C)c([C@H](OC(C)(C)C)C(=O)O)c(N2CCC(C)(C)CC2)c1-c1ccccc1 [Example 7, (S)-2-(tert-Butoxy)-2-(4-(4,4-dimethylpiperidin-1-yl)-2,6-dimethyl-5-phenylpyridin-3-yl)acetic acid]	< 0.1	–	–
(S)-2-(tert-Butoxy)-2-(4-(4,4-dimethylpiperidin-1-yl)-5-(4-(1-(4-fluorobenzyl)-1H-tetrazol-5-yl)phenyl)-2,6-dimethylpyridin-3-yl)acetic acid and/or (S)-2-(tert-Butoxy)-2-(4-(4,4-dimethylpiperidin-1-yl)-5-(4-(2-(4-fluorobenzyl)-2H-tetrazol-5-yl)phenyl)-2,6-dimethylpyridin-3-yl)acetic acid [Example 86]	–	–	< 0.1
CCOc1cc(F)cc(F)c1CNC(=O)c1ccc(-c2c(C)nc(C)c([C@H](OC(C)(C)C)C(=O)O)c2N2CCC(C)(C)CC2)cc1 [Example 67, (S)-2-(tert-Butoxy)-2-(4-(4,4-dimethylpiperidin-1-yl)-5-(4-((2-ethoxy-4,6-difluorobenzyl)carbamoyl)phenyl)-2,6-dimethylpyridin-3-yl)acetic acid]	< 0.1	–	–
Cc1nc(C)c([C@H](OC(C)(C)C)C(=O)O)c(N2CCC(C)(C)CC2)c1-c1ccc(C(=O)NCCc2ccc(F)cc2)cc1 [Example 2, (S)-2-(tert-Butoxy)-2-(4-(4,4-dimethylpiperidin-1-yl)-5-(4-((4-fluorophenethyl)carbamoyl)phenyl)-2,6-dimethylpyridin-3-yl)acetic acid]	< 0.1	–	–
Cc1nc(C)c([C@H](OC(C)(C)C)C(=O)O)c(N2CCC(C)(C)CC2)c1-c1ccc(CC(N)=O)cc1 [Example 26, (S)-2-(5-(4-(2-Amino-2-oxoethyl)phenyl)-4-(4,4-dimethylpiperidin-1-yl)-2,6-dimethylpyridin-3-yl)-2-(tert-butoxy)acetic acid]	0.1 to 1	0.373	–
Cc1nc(C)c([C@H](OC(C)(C)C)C(=O)O)c(N2CCC(C(F)(F)F)CC2)c1-c1ccc(C(=O)NCc2ccccc2)cc1 [Example 54, (S)-2-(5-(4-(Benzylcarbamoyl)phenyl)-2,6-dimethyl-4-(4-(trifluoromethyl)piperidin-1-yl)pyridin-3-yl)-2-(tert-butoxy)acetic acid]	< 0.1	–	–
Cc1nc(C)c([C@H](OC(C)(C)C)C(=O)O)c(N2CCC(C)(C)CC2)c1-c1ccc(S(=O)(CCc2ccc(F)cc2)=NC(=O)OC(C)(C)C)cc1 (stereo partly drawn) [Example 81, (2S)-2-(tert-Butoxy)-2-(5-(4-(N-(tert-butoxycarbonyl)-2-(4-fluorophenyl)ethylsulfonimidoyl)phenyl)-4-(4,4-dimethylpiperidin-1-yl)-2,6-dimethylpyridin-3-yl)acetic acid]	< 0.1	–	–
Cc1nc(C)c([C@H](OC(C)(C)C)C(=O)O)c(N2CCC(C)(C)CC2)c1-c1ccc(C2(C#N)CC2)cc1 [Example 27, (S)-2-(tert-Butoxy)-2-(5-(4-(1-cyanocyclopropyl)phenyl)-4-(4,4-dimethylpiperidin-1-yl)-2,6-dimethylpyridin-3-yl)acetic acid]	< 0.1	–	–
Cc1nc(C)c([C@H](OC(C)(C)C)C(=O)O)c(N2CCC(C)(C#N)CC2)c1-c1ccc(C(=O)NCc2ccccc2)cc1 [Example 61, (S)-2-(5-(4-(Benzylcarbamoyl)phenyl)-4-(4-cyano-4-methylpiperidin-1-yl)-2,6-dimethylpyridin-3-yl)-2-(tert-butoxy)acetic acid]	0.1 to 1	–	–
Cc1nc(C)c([C@H](OC(C)(C)C)C(=O)O)c(N2CCC(C)(C)CC2)c1-c1ccc(C(=O)NC(c2ccccc2)C(F)(F)F)cc1 (stereo partly drawn) [Example 88, (2S)-2-(tert-Butoxy)-2-(4-(4,4-dimethylpiperidin-1-yl)-2,6-dimethyl-5-(4-((2,2,2-trifluoro-1-phenylethyl)carbamoyl)phenyl)pyridin-3-yl)acetic acid]	< 0.1	–	–
CSc1ncc(-c2c(C)nc(C)c([C@H](OC(C)(C)C)C(=O)O)c2N2CCC(C)(C)CC2)cn1 [Example 42, (S)-2-(tert-Butoxy)-2-(4-(4,4-dimethylpiperidin-1-yl)-2,6-dimethyl-5-(2-(methylthio)pyrimidin-5-yl)pyridin-3-yl)acetic acid]	< 0.1	–	–
Cc1nc(C)c([C@H](OC(C)(C)C)C(=O)O)c(N2CCC(C)(C)CC2)c1-c1ccc(-c2ccccc2)cc1 [Example 8, (S)-2-(5-([1,1′-Biphenyl]-4-yl)-4-(4,4-dimethylpiperidin-1-yl)-2,6-dimethylpyridin-3-yl)-2-(tert-butoxy)acetic acid]	< 0.1	0.031	–
Cc1nc(C)c([C@H](OC(C)(C)C)C(=O)O)c(N2CCC(C)(C)CC2)c1-c1ccc(SCCC(C)C)cc1 [Example 23, (S)-2-(tert-Butoxy)-2-(4-(4,4-dimethylpiperidin-1-yl)-5-(4-(isopentylthio)phenyl)-2,6-dimethylpyridin-3-yl)acetic acid]	< 0.1	–	–
Cc1nc(C)c([C@H](OC(C)(C)C)C(=O)O)c(N2CCC(C)(C)CC2)c1-c1ccc(C=O)cc1 [Example 83, (S)-2-(tert-Butoxy)-2-(4-(4,4-dimethylpiperidin-1-yl)-5-(4-formylphenyl)-2,6-dimethylpyridin-3-yl)acetic acid]	< 0.1	–	–
